Measurements taken from ChEMBL document CHEMBL1141104, “Glycodiversification for the optimization of the kanamycin class aminoglycosides” (2005).
≈ marks a conversion by molar mass, not a printed value. Calls of active or inactive are those of the source. The calls are words filed in the database; no cut-off is given here.

Experiments:
Escherichia coli [1] = assay: Minimum inhibitory concentration against Escherichia coli (ATCC 25922); type: functional
Staphylococcus aureus [2] = assay: Minimum inhibitory concentration against Staphylococcus aureus (ATCC 25923); type: functional
Staphylococcus aureus [3] = assay: Minimum inhibitory concentration against Staphylococcus aureus (ATCC 25923); inactive; type: functional, organism-based
Escherichia coli [4] = assay: Minimum inhibitory concentration against Escherichia coli (ATCC 25922); inactive; type: functional, organism-based
[5] = Escherichia coli, ATCC 25922, read-out: MIC
[6] = Staphylococcus aureus, ATCC 25923, read-out: MIC

SMILES	MIC (Escherichia coli [1]; [5])	MIC (Staphylococcus aureus [2]; [6])	MIC (Staphylococcus aureus [3])	MIC (Escherichia coli [4])	MIC (Escherichia coli [1])	MIC (Staphylococcus aureus [2])
CC1OC(OC2C(N)CC(N)C(OC3OC(CN)C(O)C(O)C3N)C2O)C(O)C(N)C1OCC(O)CN (centres undefined)	4 µg/mL (≈ 7.4 µM)	2 µg/mL (≈ 3.7 µM)				
CC1OC(OC2C(N)CC(N)C(OC3OC(CN)C(O)C(O)C3N)C2O)C(O)C(O)C1OC[C@@H](O)CN (some centres undefined)	4 µg/mL (≈ 7.39 µM)	4 µg/mL (≈ 7.39 µM)				
CC1CC(O)C(O)C(OC2C(N)CC(N)C(OC3OC(CN)C(O)C(O)C3N)C2O)O1 (centres undefined)			inactive	inactive		
NC[C@@H]1O[C@H](O[C@H]2[C@H](O)[C@H](O[C@H]3O[C@H](CO)[C@H](O)[C@@H](O)[C@H]3O)[C@H](N)C[C@H]2N)[C@@H](N)[C@@H](O)[C@@H]1O	32 µg/mL (≈ 66 µM)	32 µg/mL (≈ 66 µM)				
CC1OC(OC2C(N)CC(N)C(OC3OC(CN)C(O)C(O)C3N)C2O)C(O)C(O)C1O (stereo in doubt; 23)			inactive	inactive		
CC1OC(OC2C(N)CC(N)C(OC3OC(CN)C(O)C(O)C3N)C2O)C(O)C(O)C1OC[C@H](N)CN (some centres undefined)	8 µg/mL (≈ 14.8 µM)	8 µg/mL (≈ 14.8 µM)				
NCC1OC(OC2C(N)CC(N)C(OC3OCC(O)C(O)C3O)C2O)C(N)C(O)C1O (centres undefined)	32 µg/mL (≈ 70.4 µM)	64 µg/mL (≈ 141 µM)				
NC[C@H]1O[C@H](O[C@H]2[C@H](O)[C@@H](O[C@H]3O[C@H](CO)[C@@H](O)[C@H](N)[C@H]3O)[C@H](N)C[C@@H]2N)[C@H](N)[C@@H](O)[C@@H]1O [BEKANAMYCIN]	2 µg/mL (≈ 4.14 µM)	2 µg/mL (≈ 4.14 µM)			4 µg/mL (≈ 8.27 µM)	1 µg/mL (≈ 2.07 µM)
CC1OC(OC2C(N)CC(N)C(OC3OC(CN)C(O)C(O)C3N)C2O)C(O)C(O)C1OCCCN (centres undefined)	4 µg/mL (≈ 7.61 µM)	4 µg/mL (≈ 7.61 µM)				

Second part, led by results:

MIC (Escherichia coli [1]; [5])	MIC (Staphylococcus aureus [2]; [6])	MIC (Staphylococcus aureus [3])	MIC (Escherichia coli [4])	SMILES	MIC (Escherichia coli [1])	MIC (Staphylococcus aureus [2])
2 µg/mL (≈ 4.28 µM)	2 µg/mL (≈ 4.28 µM)			CC1OC(OC2C(N)CC(N)C(OC3OC(CN)C(O)C(O)C3N)C2O)C(O)C(N)C1O (centres undefined)		
8 µg/mL (≈ 14.8 µM)	8 µg/mL (≈ 14.8 µM)			CC1OC(OC2C(N)CC(N)C(OC3OC(CN)C(O)C(O)C3N)C2O)C(O)C(O)C1OC[C@@H](N)CN (some centres undefined)		
		inactive	inactive	CC1OC(OC2C(N)CC(N)C(OC3OC(CN)C(O)C(O)C3N)C2O)C(O)C(O)C1O (stereo in doubt) [listing 1 of 2 here]		
4 µg/mL (≈ 7.39 µM)	4 µg/mL (≈ 7.39 µM)			CC1OC(OC2C(N)CC(N)C(OC3OC(CN)C(O)C(O)C3N)C2O)C(O)C(O)C1OC[C@H](O)CN (some centres undefined)		
32 µg/mL (≈ 68.3 µM)	16 µg/mL (≈ 34.2 µM)			CC1OC(OC2C(N)CC(N)C(OC3OC(CN)C(O)C(O)C3N)C2O)C(O)C(O)C1O (stereo in doubt) [listing 2 of 2 here]		
12 µg/mL (≈ 25.7 µM)	2 µg/mL (≈ 4.28 µM)			CC1OC(OC2C(N)CC(N)C(OC3OC(CN)C(O)C(O)C3N)C2O)C(O)C(O)C1N (centres undefined)		
8 µg/mL (≈ 13 µM)	4 µg/mL (≈ 6.51 µM)			CC1OC(OC2C(N)CC(N)C(OC3OC(CN)C(O)C(O)C3N)C2O)C(O)C(O)C1OCC(CN)OC[C@H](O)CN (some centres undefined)		
